Assay results published in PMC11062922 (Nature Chemical Biology, 2023).

What was measured:
GRK6 = biological target: T1, GRK6 (Homo sapiens, UniProt P43250); assay: Kinobeads two-dose competition binding: GRK6; settings: target GRK6
T1 construct: endogenous in cells

ICK = assay: Kinobeads competition binding: ICK; parameters: species or system human; settings: target ICK
PKM = assay: Kinobeads competition binding: PKM; parameters: species or system human; settings: target PKM
AIFM1 = assay: Kinobeads competition binding: AIFM1; parameters: species or system human; settings: target AIFM1
CLK3 = assay: Kinobeads competition binding: CLK3; parameters: species or system human; settings: target CLK3
EPHB1 = biological target: T2, EPHB1 (Homo sapiens, UniProt P54762); assay: Kinobeads competition binding: EPHB1; settings: target EPHB1
T2 construct: endogenous in cells
T2 sequence (P54762 18-984): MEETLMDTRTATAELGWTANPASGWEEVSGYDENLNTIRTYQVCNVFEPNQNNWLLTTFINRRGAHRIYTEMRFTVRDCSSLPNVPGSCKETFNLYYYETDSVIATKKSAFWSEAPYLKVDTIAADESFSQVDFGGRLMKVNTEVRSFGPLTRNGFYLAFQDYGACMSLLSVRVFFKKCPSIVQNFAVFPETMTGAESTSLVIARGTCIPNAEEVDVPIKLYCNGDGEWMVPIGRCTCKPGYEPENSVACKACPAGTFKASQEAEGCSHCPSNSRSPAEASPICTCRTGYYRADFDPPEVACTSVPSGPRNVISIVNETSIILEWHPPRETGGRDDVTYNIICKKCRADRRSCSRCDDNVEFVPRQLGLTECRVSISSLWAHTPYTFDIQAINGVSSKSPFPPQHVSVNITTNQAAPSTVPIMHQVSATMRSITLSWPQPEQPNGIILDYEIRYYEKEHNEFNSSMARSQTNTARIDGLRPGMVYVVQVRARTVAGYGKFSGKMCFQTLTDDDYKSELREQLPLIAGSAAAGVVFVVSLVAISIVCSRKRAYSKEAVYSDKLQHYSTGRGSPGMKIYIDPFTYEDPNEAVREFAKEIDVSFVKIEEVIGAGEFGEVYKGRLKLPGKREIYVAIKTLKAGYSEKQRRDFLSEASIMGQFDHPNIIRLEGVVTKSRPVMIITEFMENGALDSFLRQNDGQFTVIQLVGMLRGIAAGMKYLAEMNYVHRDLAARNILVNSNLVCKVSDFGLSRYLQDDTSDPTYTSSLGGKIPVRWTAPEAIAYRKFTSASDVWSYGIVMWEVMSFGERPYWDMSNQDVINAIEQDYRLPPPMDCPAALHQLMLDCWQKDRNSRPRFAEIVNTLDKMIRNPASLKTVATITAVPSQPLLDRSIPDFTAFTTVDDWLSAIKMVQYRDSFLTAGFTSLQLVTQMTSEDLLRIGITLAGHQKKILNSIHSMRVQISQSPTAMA
From the text: Supplement 41589_2023_1459_MOESM4_ESM.xlsx, sheet "CATDS matrix" | column: EPHB1

MAP2K6 = assay: Kinobeads competition binding: MAP2K6; parameters: species or system human; settings: target MAP2K6
EPHA1 = biological target: T3, EPHA1 (Homo sapiens, UniProt P21709); assay: Kinobeads competition binding: EPHA1; settings: target EPHA1
T3 construct: endogenous in cells
T3 sequence (P21709 26-976): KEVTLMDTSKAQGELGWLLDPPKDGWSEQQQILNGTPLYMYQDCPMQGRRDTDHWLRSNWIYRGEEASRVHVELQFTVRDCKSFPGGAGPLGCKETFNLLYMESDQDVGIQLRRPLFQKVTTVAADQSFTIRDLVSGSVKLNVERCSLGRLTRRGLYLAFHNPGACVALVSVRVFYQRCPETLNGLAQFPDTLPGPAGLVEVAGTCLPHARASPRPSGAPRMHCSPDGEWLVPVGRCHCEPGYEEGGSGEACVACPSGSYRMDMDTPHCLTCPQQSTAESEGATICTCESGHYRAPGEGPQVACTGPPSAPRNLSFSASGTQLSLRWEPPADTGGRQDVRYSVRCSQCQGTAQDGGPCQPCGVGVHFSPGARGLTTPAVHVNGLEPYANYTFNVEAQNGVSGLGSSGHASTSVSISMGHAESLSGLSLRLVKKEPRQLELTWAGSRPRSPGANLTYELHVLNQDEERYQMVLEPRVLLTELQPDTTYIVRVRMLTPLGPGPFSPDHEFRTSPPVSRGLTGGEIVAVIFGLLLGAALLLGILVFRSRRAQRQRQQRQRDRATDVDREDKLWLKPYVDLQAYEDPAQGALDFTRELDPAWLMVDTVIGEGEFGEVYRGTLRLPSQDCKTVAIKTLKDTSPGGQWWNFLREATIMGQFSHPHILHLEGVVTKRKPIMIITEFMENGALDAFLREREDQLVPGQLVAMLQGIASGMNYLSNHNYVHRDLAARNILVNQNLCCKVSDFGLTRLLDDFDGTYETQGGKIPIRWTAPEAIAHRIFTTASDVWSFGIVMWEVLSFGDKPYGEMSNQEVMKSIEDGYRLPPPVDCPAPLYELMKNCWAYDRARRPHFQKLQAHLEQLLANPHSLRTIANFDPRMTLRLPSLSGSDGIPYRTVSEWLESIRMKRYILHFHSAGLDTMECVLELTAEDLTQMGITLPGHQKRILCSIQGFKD
From the text: Supplement 41589_2023_1459_MOESM4_ESM.xlsx, sheet "CATDS matrix" | column: EPHA1

MAP4K3 = assay: Kinobeads competition binding: MAP4K3; parameters: species or system human; settings: target MAP4K3
DYRK1A = biological target: T4, DYRK1A (Homo sapiens, UniProt Q13627); assay: Kinobeads competition binding: DYRK1A; settings: target DYRK1A
T4 construct: endogenous in cells

Measured: CATDS

T1 sequence (P43250 whole entry): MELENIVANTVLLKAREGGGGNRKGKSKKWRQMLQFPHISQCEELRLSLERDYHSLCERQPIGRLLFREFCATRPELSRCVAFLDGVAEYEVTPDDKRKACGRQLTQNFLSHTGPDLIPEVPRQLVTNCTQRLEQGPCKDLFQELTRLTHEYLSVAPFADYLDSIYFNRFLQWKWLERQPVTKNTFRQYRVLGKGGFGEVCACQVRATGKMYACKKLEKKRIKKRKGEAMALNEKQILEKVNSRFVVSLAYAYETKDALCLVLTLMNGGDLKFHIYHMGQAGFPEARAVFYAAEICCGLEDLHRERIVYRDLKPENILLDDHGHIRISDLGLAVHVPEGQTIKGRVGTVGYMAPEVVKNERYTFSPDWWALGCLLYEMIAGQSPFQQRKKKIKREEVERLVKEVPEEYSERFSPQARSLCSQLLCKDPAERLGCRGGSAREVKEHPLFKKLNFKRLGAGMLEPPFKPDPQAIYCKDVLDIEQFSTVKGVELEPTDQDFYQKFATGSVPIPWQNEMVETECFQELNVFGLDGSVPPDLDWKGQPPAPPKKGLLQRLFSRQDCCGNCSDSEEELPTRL

CCN1CCN(Cc2ccc(Nc3ncc(F)c(-c4cc(F)c5nc(C)n(C(C)C)c5c4)n3)nc2)CC1 [Abemaciclib]
not listed: DYRK1A
0: all other assays above

N#CC1(c2ccc(NC(=O)c3cccnc3NCc3ccncc3)cc2)CCCC1 [Apatinib]
0: all assays above

CN(C)C/C=C/C(=O)Nc1cc2c(Nc3ccc(F)c(Cl)c3)ncnc2cc1O[C@H]1CCOC1 [Afatinib]
0: GRK6 | AIFM1 | EPHB1 | EPHA1

Nc1ncnc2[nH]c(-c3ccccc3)nc12 [AH5015_KCGS]
0: all assays above

CCc1cc2c(cc1N1CCC(N3CCOCC3)CC1)C(C)(C)c1[nH]c3cc(C#N)ccc3c1C2=O [Alectinib]
0: all assays above
